{
  "source": "paper PMC10343279",
  "about": "“The Cytotoxic Activity of Dammarane-Type Triterpenoids Isolated from the Stem Bark of Aglaia cucullata (Meliaceae)” (Molecules, 2023)",
  "assay_type_in_all_cases": "cell-based",
  "key": {"[1]": {"system": "B16-F10 melanoma cell line", "assay": "PrestoBlue cytotoxicity assay against B16-F10 melanoma cells", "settings": "24 h incubation, run twice and averaged; for pIC50: read-out: IC50 for B16-F10; for IC50: read-out: IC50 for B16-F10 (μg/mL)", "description": "(§1) A normal cell (CV-1 kidney fibroblast cells) and two cancer cell lines (MCF-7 breast cancer and B16-F10 melanoma cells) were used to test the cytotoxic activities of compounds 1–7. In this experiment, two wavelengths (570 and 600 nm) were used because the measured cells were live cells so, to obtain the value/number of live cells, measurements were carried out at two wavelengths, namely before the reaction (blue) and after the reaction (pink) to produce a corrected absorbance value, which was interpreted as the number live cells after treatment. The results arising from the experiments, along with IC50 calculation graphs and cell morphology at each sample concentration, are presented in Figures S38–S58.\n(§2) The PrestoBlue assay was utilized to conduct the cytotoxic bioassay. Additionally, Presto Blue reagent from Thermo Fisher Scientific, Uppsala, Sweden, was used to measure cell viability, which allowed for rapid evaluation of various resazurin-based cells. The rate of proliferation of the samples was then determined quantitatively through live-cell reduction capabilities. According to the findings, healthy cells kept a reduced habitat in their cytoplasm. By reducing resorufin (purple) with absorbance or fluorescence outputs, resazurin reduction (blue) acted as a viability indicator. The conversion correlated with the number of cells that were metabolically active. MCF-7, B16-F10, and CV-1 cell lines were cultured until they reached 70% confluence, and then they were removed, counted with a hemocytometer, and diluted with complete culture RPMI media. A total of 170,000 cells per well in 96-well plates with the samples were used. After an overnight growth period, the samples were treated with compounds 1–7 at escalating concentrations ([…]) in PBS, with 2% DMSO as the co-solvent. Additionally, cisplatin served as the positive control, and all samples were incubated for 24 h at 37° C with 5% CO2. Following incubation, the medium was immediately changed to 10 μL of the PrestoBlue reagent in 90 μL of the RPMI medium. As resorufin began to form, the color of the plates changed from blue to purple after being incubated for another one to two hours. Using a microplate reader to measure absorbance at 570 nm and 600 nm, the concentration required to inhibit growth by 50% was calculated as the IC50 value. […] The results of each test and analysis were averaged after being run twice."}, "[2]": {"system": "CV-1 normal kidney fibroblast cell line", "assay": "cells", "settings": "for pIC50: read-out: IC50 for CV-1; for IC50: read-out: IC50 for CV-1 (μg/mL)", "description": "as §1, §2"}, "[3]": {"system": "MCF-7 breast cancer cell line", "assay": "PrestoBlue cytotoxicity assay against MCF-7 breast cancer cells", "settings": "MCF-7, PrestoBlue, 24 h incubation, run twice and averaged; for pIC50: read-out: IC50 for MCF-7; for IC50: read-out: IC50 for MCF-7 (μg/mL)", "description": "as §1, §2"}, "[4]": {"settings": "CV-1 normal cells, PrestoBlue, 24 h incubation, run twice and averaged"}, "[5]": {"settings": "Fibroblast, CV-1 normal cells, PrestoBlue, 24 h incubation, run twice and averaged"}},
  "note": "pIC50: −log10 of the molar value. Where two headings read alike, the source gives them in different places.",
  "data": [
    {"smiles": "N.N.[Cl][Pt][Cl]", "note": "[Cisplatin, cisplatin, reference compound]", "values": [
      {"measurement": "IC50 for B16-F10", "setting": "[1]", "result": 43.00, "unit": "µg/mL"},
      {"measurement": "pIC50", "setting": "[1]", "result": 3.85},
      {"measurement": "IC50 for CV-1", "setting": "[2]; [4]", "result": 43.00, "unit": "µg/mL"},
      {"measurement": "pIC50", "setting": "[2]; [4]", "result": 3.85},
      {"measurement": "IC50 for MCF-7", "setting": "[3]", "result": 53.00, "unit": "µg/mL"},
      {"measurement": "pIC50", "setting": "[3]", "result": 3.75}
    ]},
    {"smiles": "CC(C)(O)[C@@H]1CC[C@@](C)(C2CC[C@]3(C)C2CCC2[C@@]4(C)CC[C@@H](O)C(C)(C)C4CC[C@]23C)O1", "note": "(stereo partly drawn) [Compound 1, 20S,24S-epoxy-3α,25-dihydroxy-dammarane]", "values": [
      {"measurement": "pIC50", "setting": "[1]; Mus musculus", "result": 4.01},
      {"measurement": "IC50", "setting": "[1]; Mus musculus", "result": 44.8, "unit": "µg/mL"},
      {"measurement": "pIC50", "setting": "[2]; [5]", "result": 3.76},
      {"measurement": "IC50", "setting": "[2]; [5]", "result": 80.1, "unit": "µg/mL"},
      {"measurement": "pIC50", "setting": "[3]; Homo sapiens, MCF7", "result": 3.85},
      {"measurement": "IC50", "setting": "[3]; Homo sapiens, MCF7", "result": 65.5, "unit": "µg/mL"}
    ]},
    {"smiles": "C=C(CCC=C(C)C)C1CC[C@]2(C)C1CC[C@@H]1[C@@]3(C)CCC(=O)C(C)(C)C3CC[C@]12C", "note": "(stereo partly drawn) [Compound 2, dammaradienone]", "values": [
      {"measurement": "pIC50", "setting": "[1]; Mus musculus", "result": 3.89},
      {"measurement": "IC50", "setting": "[1]; Mus musculus", "result": 54.8, "unit": "µg/mL"},
      {"measurement": "pIC50", "setting": "[2]; [5]", "result": 3.71},
      {"measurement": "IC50", "setting": "[2]; [5]", "result": 82.8, "unit": "µg/mL"},
      {"measurement": "pIC50", "setting": "[3]; Homo sapiens, MCF7", "result": 3.88},
      {"measurement": "IC50", "setting": "[3]; Homo sapiens, MCF7", "result": 56.1, "unit": "µg/mL"}
    ]},
    {"smiles": "CC(C)=CCC[C@](C)(O)C1CC[C@]2(C)C1CC[C@@H]1[C@@]3(C)CCC(=O)C(C)(C)C3CC[C@]12C", "note": "(stereo partly drawn) [Compound 3, 20S-hydroxy-dammar-24-en-3-on]", "values": [
      {"measurement": "pIC50", "setting": "[1]; Mus musculus", "result": 3.96},
      {"measurement": "IC50", "setting": "[1]; Mus musculus", "result": 49.1, "unit": "µg/mL"},
      {"measurement": "cell death based on morphological observation", "setting": "[2]", "result": "no cell death at all concentration levels"},
      {"measurement": "pIC50", "setting": "[2]; [5]", "result": "< 3.52"},
      {"measurement": "IC50", "setting": "[2]; [5]", "result": "> 300", "unit": "µg/mL"},
      {"measurement": "pIC50", "setting": "[3]; Homo sapiens, MCF7", "result": "< 3.52"},
      {"measurement": "IC50", "setting": "[3]; Homo sapiens, MCF7", "result": 142, "unit": "µg/mL"}
    ]},
    {"smiles": "C=C(C)[C@@H]1CC[C@]2(C)[C@H](CC[C@@H]3[C@@H]([C@]4(C)CC[C@@H](C(C)(C)O)O4)CC[C@]32C)[C@@]1(C)CCC(=O)O", "note": "[Compound 4, eichlerianic acid]", "values": [
      {"measurement": "pIC50", "setting": "[1]; Mus musculus", "result": "< 3.52"},
      {"measurement": "IC50", "setting": "[1]; Mus musculus", "result": 275, "unit": "µg/mL"},
      {"measurement": "pIC50", "setting": "[2]; [5]", "result": 3.54},
      {"measurement": "IC50", "setting": "[2]; [5]", "result": 137, "unit": "µg/mL"},
      {"measurement": "pIC50", "setting": "[3]; Homo sapiens, MCF7", "result": "< 3.52"},
      {"measurement": "IC50", "setting": "[3]; Homo sapiens, MCF7", "result": "> 300", "unit": "µg/mL"}
    ]},
    {"smiles": "COC1CC[C@@](C)(C2CC[C@]3(C)C2CCC2[C@@]4(C)CCC(=O)C(C)(C)C4CC[C@]23C)O1", "note": "(stereo partly drawn) [Compound 5, (20S,24RS)-23,24-epoxy-24-methoxy-25,26,27-tris-nor dammar-3-one]", "values": [
      {"measurement": "pIC50", "setting": "[1]; Mus musculus", "result": 3.98},
      {"measurement": "IC50", "setting": "[1]; Mus musculus", "result": 45.4, "unit": "µg/mL"},
      {"measurement": "cell death based on morphological observation", "setting": "[2]", "result": "no cell death at all concentration levels"},
      {"measurement": "pIC50", "setting": "[2]; [5]", "result": "< 3.52"},
      {"measurement": "IC50", "setting": "[2]; [5]", "result": "> 300", "unit": "µg/mL"},
      {"measurement": "pIC50", "setting": "[3]; Homo sapiens, MCF7", "result": 3.88},
      {"measurement": "IC50", "setting": "[3]; Homo sapiens, MCF7", "result": 57.3, "unit": "µg/mL"}
    ]},
    {"smiles": "CC(=O)O[C@@H]1CC[C@@]2(C)C(CC[C@]3(C)C2CCC2C([C@]4(C)CCC(=O)O4)CC[C@]23C)C1(C)C", "note": "(stereo partly drawn) [Compound 6, 3α-acetyl-cabraleahydroxy lactone]", "values": [
      {"measurement": "pIC50", "setting": "[1]; Mus musculus", "result": 3.56},
      {"measurement": "IC50", "setting": "[1]; Mus musculus", "result": 126, "unit": "µg/mL"},
      {"measurement": "pIC50", "setting": "[2]; [5]", "result": 3.55},
      {"measurement": "IC50", "setting": "[2]; [5]", "result": 131, "unit": "µg/mL"},
      {"measurement": "pIC50", "setting": "[3]; Homo sapiens, MCF7", "result": 3.56},
      {"measurement": "IC50", "setting": "[3]; Homo sapiens, MCF7", "result": 126, "unit": "µg/mL"}
    ]},
    {"smiles": "CC(=O)O[C@@H]1CC[C@@]2(C)C(CC[C@]3(C)C2CCC2C([C@]4(C)CC[C@@H](C(C)(C)O)O4)CC[C@]23C)C1(C)C", "note": "(stereo partly drawn) [Compound 7, 3α-acetyl-20S,24S-epoxy-3α,25-dihydroxydammarane]", "values": [
      {"measurement": "pIC50", "setting": "[1]; Mus musculus", "result": 3.80},
      {"measurement": "IC50", "setting": "[1]; Mus musculus", "result": 79.4, "unit": "µg/mL"},
      {"measurement": "cell death based on morphological observation", "setting": "[2]", "result": "no cell death at all concentration levels"},
      {"measurement": "pIC50", "setting": "[2]; [5]", "result": "< 3.52"},
      {"measurement": "IC50", "setting": "[2]; [5]", "result": "> 300", "unit": "µg/mL"},
      {"measurement": "pIC50", "setting": "[3]; Homo sapiens, MCF7", "result": 3.71},
      {"measurement": "IC50", "setting": "[3]; Homo sapiens, MCF7", "result": 97.9, "unit": "µg/mL"}
    ]}
  ]
}
